Measurements taken from PubChem BioAssay (NCI).
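All cell lines were grown in 96-well plates and treated with compound for 48 hours. GI50 = concentration required for 50% inhibition of growth. TGI is the concentration that stops growth completely.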

Columns and labels:
Assay in all cases: growth of human tumour cells (NCI), 48 h
[1] = system: SN12C renal
[2] = system: NCI-H226 lung
[3] = system: SK-MEL-2 melanoma
[4] = system: NCI-H522 lung
[5] = system: RXF 393 renal
[6] = system: HOP-92 NSCLC
[7] = system: OVCAR-5 ovarian
[8] = system: OVCAR-3 ovarian
[9] = system: M14 melanoma
[10] = system: CAKI-1 renal

COC(=O)CCC(NC(=S)N/N=C(\C)c1ccccn1)C(=O)OC (configuration not stated)
TGI [1]: > 100 µM | TGI [2]: > 100 µM | TGI [3]: > 100 µM | TGI [4]: > 100 µM | TGI [5]: > 100 µM | TGI [6]: > 100 µM | TGI [7]: > 100 µM | TGI [8]: > 100 µM | TGI [9]: > 100 µM

C=C1C(=O)OC2CCCCC3OC3C12 (configuration not stated)
TGI [10]: 9.83 µM | TGI [1]: 21.3 µM | TGI [3]: 27.5 µM | TGI [4]: 3.91 µM | TGI [5]: 30.1 µM | TGI [7]: 32.3 µM | TGI [8]: 26.5 µM | TGI [9]: 20.4 µM

COC(=O)C(C(=O)C(=O)Nc1cccc(O)c1)c1nc2ccc(Cl)cc2[nH]c1=O (configuration not stated)
TGI [10]: > 100 µM | TGI [1]: > 100 µM | TGI [2]: > 100 µM | TGI [3]: > 100 µM | TGI [5]: > 100 µM | TGI [6]: > 100 µM | TGI [7]: > 100 µM | TGI [8]: > 100 µM | TGI [9]: > 100 µM

CCCc1cc(=O)oc2c(C(=O)CC(C)C)c(O)c(CC=C(C)C)c(O)c12
GI50 [10]: 8.38 µM | TGI [10]: 33.9 µM | GI50 [1]: 8.84 µM | TGI [1]: > 50 µM | GI50 [2]: 11.8 µM | TGI [2]: 38.5 µM | GI50 [3]: 9.71 µM | TGI [3]: 49 µM | GI50 [4]: 8.17 µM | TGI [4]: > 50 µM | GI50 [5]: 13.7 µM | TGI [5]: 45.2 µM | GI50 [6]: 1.25 µM | TGI [6]: 4.15 µM | GI50 [8]: 3.53 µM | TGI [8]: > 50 µM | GI50 [9]: 10.3 µM | TGI [9]: > 50 µM

O=[N+]([O-])c1cccc(C2SCc3nc4ccccc4n32)c1 (configuration not stated)
TGI [10]: > 100 µM | TGI [1]: > 100 µM | TGI [2]: > 100 µM | TGI [3]: > 100 µM | TGI [5]: > 100 µM | TGI [6]: > 100 µM | TGI [7]: > 100 µM

CC(C)c1cc(C(C)C)c(S(=O)(=O)NN)c(C(C)C)c1
TGI [10]: > 100 µM | TGI [1]: > 100 µM | TGI [3]: > 100 µM | TGI [5]: > 100 µM | TGI [6]: > 100 µM | TGI [7]: > 100 µM | TGI [8]: > 100 µM

CSC1=Nc2c(c(C)c(-c3ccccc3)n2COC(CO)CO)C2=NC(=O)C(C)N12 (configuration not stated)
GI50 [10]: > 100 µM | TGI [10]: > 100 µM | GI50 [1]: > 100 µM | TGI [1]: > 100 µM | GI50 [2]: > 100 µM | TGI [2]: > 100 µM | GI50 [3]: > 100 µM | TGI [3]: > 100 µM | GI50 [4]: > 100 µM | TGI [4]: > 100 µM | GI50 [5]: > 100 µM | TGI [5]: > 100 µM | GI50 [6]: > 100 µM | TGI [6]: > 100 µM | GI50 [7]: > 100 µM | TGI [7]: > 100 µM | GI50 [8]: > 100 µM | TGI [8]: > 100 µM

COc1cc(/C=C/C(=O)C(=Cc2ccc(F)c(F)c2)C(=O)/C=C/c2ccc(O)c(OC)c2)ccc1O
GI50 [10]: 3.51 µM | TGI [10]: 20.2 µM | GI50 [1]: 2.65 µM | TGI [1]: 7.86 µM | GI50 [2]: 3.39 µM | TGI [2]: 12.1 µM | GI50 [3]: 1.81 µM | TGI [3]: 3.58 µM | GI50 [4]: 1.45 µM | TGI [4]: 3.12 µM | GI50 [5]: 1.74 µM | TGI [5]: 3.2 µM | GI50 [6]: 2.51 µM | TGI [6]: 6.05 µM | GI50 [7]: 3.25 µM | TGI [7]: 14.3 µM | GI50 [8]: 1.91 µM | TGI [8]: 4.78 µM

C/C=C/C=N/N(c1nnc(-c2ccccc2)c(-c2ccccc2)n1)S(=O)(=O)c1ccc(C)cc1
TGI [10]: 31.4 µM | TGI [1]: 20.7 µM | TGI [2]: 31.2 µM | TGI [3]: 24.1 µM | TGI [4]: 19.4 µM | TGI [6]: 31.3 µM | TGI [7]: 33.5 µM | TGI [8]: 25.2 µM | TGI [9]: 15.8 µM

CC(=O)OC1(C#N)CC2OC1C1C2N1C(=O)c1ccccc1 (configuration not stated)
TGI [10]: > 100 µM | TGI [1]: > 100 µM | TGI [2]: > 100 µM | TGI [3]: > 100 µM | TGI [4]: > 100 µM | TGI [5]: > 100 µM | TGI [6]: > 100 µM | TGI [7]: > 100 µM | TGI [9]: > 100 µM
